Data on four molecules can be found in article PMC3628110, “Mechanism for priming DNA synthesis by yeast DNA Polymerase α” (eLife, 2013).

Series [1] deals with T1, Pol α (catalytic core, 349–1258) (Saccharomyces cerevisiae, UniProt P13382, R508A/N509A/D998N).
T1 construct: gene POL1; catalytic core, residues 349-1258 (910 aa); N-terminal dual His/Strep tag, TEV-cleaved; E. coli BL21(DE3)Rosetta2
T1 sequence (P13382 349-1258 R508A/N509A/D998N): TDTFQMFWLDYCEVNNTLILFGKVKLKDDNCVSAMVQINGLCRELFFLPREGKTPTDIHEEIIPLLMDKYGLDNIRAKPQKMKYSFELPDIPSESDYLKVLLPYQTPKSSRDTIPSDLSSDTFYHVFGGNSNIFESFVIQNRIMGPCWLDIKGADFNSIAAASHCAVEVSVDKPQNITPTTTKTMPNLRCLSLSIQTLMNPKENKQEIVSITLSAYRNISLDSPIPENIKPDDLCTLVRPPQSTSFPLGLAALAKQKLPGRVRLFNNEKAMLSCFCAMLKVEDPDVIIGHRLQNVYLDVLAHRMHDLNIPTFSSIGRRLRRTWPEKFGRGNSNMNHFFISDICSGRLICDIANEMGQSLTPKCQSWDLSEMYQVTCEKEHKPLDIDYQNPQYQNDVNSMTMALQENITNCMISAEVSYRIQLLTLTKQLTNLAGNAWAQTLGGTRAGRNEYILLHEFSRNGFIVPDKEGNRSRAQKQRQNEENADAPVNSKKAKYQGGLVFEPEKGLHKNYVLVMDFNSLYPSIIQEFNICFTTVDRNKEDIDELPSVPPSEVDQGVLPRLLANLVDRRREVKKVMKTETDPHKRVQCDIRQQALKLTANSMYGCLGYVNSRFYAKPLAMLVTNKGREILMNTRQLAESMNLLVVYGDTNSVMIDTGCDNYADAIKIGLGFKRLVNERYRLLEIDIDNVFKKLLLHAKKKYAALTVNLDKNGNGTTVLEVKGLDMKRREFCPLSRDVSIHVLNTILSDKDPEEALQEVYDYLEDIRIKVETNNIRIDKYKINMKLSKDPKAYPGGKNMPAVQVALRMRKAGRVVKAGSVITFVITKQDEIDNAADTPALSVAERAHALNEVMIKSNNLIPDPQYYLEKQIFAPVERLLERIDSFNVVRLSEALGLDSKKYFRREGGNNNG
The experiment in a line: primer extension assay, denaturing gel. It counts as biochemical. The following applies: labelled compound ([α-32P]dATP); poly(dT) 70mer template; up to 10 μM protein; 90 s.

For series [2], the target named is T1, Pol α (catalytic core, 349–1258). Nature of the series: X-ray crystal structure of ternary complex, […] Å. The series is classed as binding. The following applies: RNA 10mer primer/DNA 25mer template; 5 mM dGTP; 200 mM Mg acetate; polymerase active site; primer extended by dGMP during crystallization (mass spectrometry).
The target of series [3] is T2, DNA polymerase alpha catalytic core (Pol α), R508A N509A D998N (Saccharomyces cerevisiae, UniProt P13382 349-1258, R508A;N509A;D998N).
T2 sequence: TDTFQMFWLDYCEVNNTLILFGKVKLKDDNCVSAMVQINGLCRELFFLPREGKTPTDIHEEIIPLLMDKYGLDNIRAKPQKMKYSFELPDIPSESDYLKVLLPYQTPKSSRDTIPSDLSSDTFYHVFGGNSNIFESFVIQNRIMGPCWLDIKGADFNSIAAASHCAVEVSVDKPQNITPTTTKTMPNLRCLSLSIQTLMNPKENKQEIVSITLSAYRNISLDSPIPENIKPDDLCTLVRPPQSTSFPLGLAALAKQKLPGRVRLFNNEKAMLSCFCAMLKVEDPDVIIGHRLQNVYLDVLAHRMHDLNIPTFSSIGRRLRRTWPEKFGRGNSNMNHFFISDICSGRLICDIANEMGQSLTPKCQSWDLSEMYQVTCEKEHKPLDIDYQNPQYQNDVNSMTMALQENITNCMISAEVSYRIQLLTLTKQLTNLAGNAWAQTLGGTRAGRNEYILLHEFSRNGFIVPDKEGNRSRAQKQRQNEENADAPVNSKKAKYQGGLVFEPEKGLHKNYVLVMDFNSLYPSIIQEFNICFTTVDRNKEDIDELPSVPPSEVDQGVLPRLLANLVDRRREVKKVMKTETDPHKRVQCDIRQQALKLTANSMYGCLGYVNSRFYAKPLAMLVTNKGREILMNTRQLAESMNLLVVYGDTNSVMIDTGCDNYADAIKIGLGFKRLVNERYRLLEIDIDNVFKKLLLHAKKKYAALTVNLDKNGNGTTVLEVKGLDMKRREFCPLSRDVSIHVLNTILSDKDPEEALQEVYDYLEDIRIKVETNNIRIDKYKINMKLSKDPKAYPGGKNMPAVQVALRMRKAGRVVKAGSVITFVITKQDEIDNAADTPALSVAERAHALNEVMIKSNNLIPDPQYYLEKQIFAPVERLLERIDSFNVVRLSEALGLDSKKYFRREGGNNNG
The experiment in a line: X-ray crystallography (3.1 Å); dGTP (5 mM) bound in active site; 200 mM Mg acetate; Crystals only: binary 0.1 M Bicine pH 8.0, 12% PEG 3350, 10 mM MgCl2, 18 °C; ternary 200 mM Mg acetate, 10% PEG 8000, 5 mM dGTP, micro-batch (3% glycerol). Primer extension assays are turnover only and not listed. Particulars: protein: recombinant; tags: N-terminal dual His/streptavidin tag, TEV-cleaved; 5' overhang 13 nt on template after extension (15 nt before); 12 bp.

The target of series [4] is T3, DNA polymerase alpha catalytic core (Pol α), wild type (Saccharomyces cerevisiae, UniProt P13382 349-1258).
T3 sequence: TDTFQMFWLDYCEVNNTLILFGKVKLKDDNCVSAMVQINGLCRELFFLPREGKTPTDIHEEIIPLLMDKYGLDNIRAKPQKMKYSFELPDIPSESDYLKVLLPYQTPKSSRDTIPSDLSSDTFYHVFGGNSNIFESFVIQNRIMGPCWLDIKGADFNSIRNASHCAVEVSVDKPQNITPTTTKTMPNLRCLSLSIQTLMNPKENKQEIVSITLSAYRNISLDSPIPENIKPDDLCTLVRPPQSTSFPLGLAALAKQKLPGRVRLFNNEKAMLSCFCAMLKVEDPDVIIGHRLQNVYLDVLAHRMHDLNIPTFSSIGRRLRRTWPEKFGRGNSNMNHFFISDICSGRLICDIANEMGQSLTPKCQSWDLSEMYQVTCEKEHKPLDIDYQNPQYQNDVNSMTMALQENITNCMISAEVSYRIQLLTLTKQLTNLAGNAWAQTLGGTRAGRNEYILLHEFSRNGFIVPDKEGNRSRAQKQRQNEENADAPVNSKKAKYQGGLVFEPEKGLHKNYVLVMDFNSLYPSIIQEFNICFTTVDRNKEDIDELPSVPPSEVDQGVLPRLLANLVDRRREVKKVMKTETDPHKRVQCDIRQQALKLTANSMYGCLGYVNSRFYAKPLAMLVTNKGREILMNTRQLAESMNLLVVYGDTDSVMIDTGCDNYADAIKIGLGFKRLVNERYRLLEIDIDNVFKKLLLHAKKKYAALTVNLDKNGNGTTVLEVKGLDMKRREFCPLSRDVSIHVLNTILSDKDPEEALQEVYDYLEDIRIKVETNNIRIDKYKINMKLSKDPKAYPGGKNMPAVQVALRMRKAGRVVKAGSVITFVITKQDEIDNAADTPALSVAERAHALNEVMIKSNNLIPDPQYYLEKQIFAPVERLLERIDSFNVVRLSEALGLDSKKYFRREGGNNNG
Nature of the series: X-ray crystallography (3.0 Å); 10 mM MgCl2, 1 mM ddCTP in drop (no ddCTP density); Crystals only: binary 0.1 M Bicine pH 8.0, 12% PEG 3350, 10 mM MgCl2, 18 °C; ternary 200 mM Mg acetate, 10% PEG 8000, 5 mM dGTP, micro-batch (3% glycerol). Primer extension assays are turnover only and not listed. Particulars: protein: recombinant; tags: N-terminal dual His/streptavidin tag, TEV-cleaved; 5' overhang 6 nt on template; 10 bp.

In the case of `Nc1ncnc2c1ncn2[C@H]1C[C@H](O)[C@@H](COP(=O)(O)OP(=O)(O)OP(=O)(O)O)O1` [dATP], in series [1], the “primer extension assay, denaturing gel” value was “Residual activity of the D998N R508A N509A Pol α mutant was demonstrated by the primer extension assay”.

As to `Nc1nc2c(ncn2[C@H]2C[C@H](O)[C@@H](COP(=O)(O)OP(=O)(O)OP(=O)(O)O)O2)c(=O)[nH]1` [dGTP], the “X-ray crystal structure of ternary complex, 3.1 Å” value in series [2] is “the R508A, N509A, D998N Pol α mutant was used”.

B1: RNA 10mer primer extended in crystal by two dG / DNA 25mer template (ternary complex) (DNA:RNA)
?: CGGCGGGCAGGG
DNA: TGAGCGTGTGTACCCCTGCCCGCCG
modifications: strand 1 is RNA 10mer (S5) plus two 3' deoxyguanosines; strand 2 DNA
Regarding B1, the binding result in series [3] was “binds”.

B2: RNA 10mer primer / DNA 16mer template (binary complex) (DNA:RNA)
?: AGGCGGGCAG
DNA: TTTTCGCTGCCCGCCT
modifications: strand 1 RNA, strand 2 DNA
On to B2, for which the binding result in series [4] is recorded as “binds”.
